Experimental data: patent US12091425B2 (AMGEN INC., priority 2016, dated 2024)
pIC50: −log10 of the molar value.

How the values were obtained:
[1] = tested on: OPM-2 human multiple myeloma cell line; assay: Cell Viability Assay (OPM-2 10 FBS); format: cell-based; conditions: OPM-2 cells, CellTiter-Glo
In short: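 Plated at 3000 cells/well in 10% FBS complete medium, the cells received a serial compound dilution series and incubated 16 h at 37 °C with 5% CO2. CellTiter-Glo was then added; IC50 values were fitted with a logistic 4-parameter model.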

[2] = target: T1, Mcl-1/Bim interaction, recombinant human Mcl-1 (171-327) (Homo sapiens, UniProt Q07820); assay: Cell free Mcl-1: Bim Affinity Assay (Mcl-1 HTRF); format: binding
T1 construct: made in house
In short: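 Biotin-Bim(51-76) peptide, TR-FRET readout, overnight incubation; IC50 from duplicate competition curves, 4-parameter fit.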

[3] = Homo sapiens, OPM-2, 16 h, 16 h
[4] = TR-FRET, 0.1 nM Mcl-1 (171-327), 0.05 nM biotin-Bim (51-76)
[5] = cell free Mcl-1:Bim TR-FRET, recombinant human Mcl-1 (171-327)

T1 sequence (Q07820 171-327): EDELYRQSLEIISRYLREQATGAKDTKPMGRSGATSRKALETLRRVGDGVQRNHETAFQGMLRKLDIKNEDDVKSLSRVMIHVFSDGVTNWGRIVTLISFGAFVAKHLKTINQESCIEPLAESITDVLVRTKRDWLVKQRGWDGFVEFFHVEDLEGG

Row | Structure (SMILES) | pIC50 [1, 3] | pIC50 [2, 4] | pIC50 [2, 5] | pIC50 ([1]; 16 h) | pIC50 ([1]; 16 h incubation)
1 | COC1CC(N2[C@H](C)C/C=C/[C@H](O)[C@@H]3CC[C@H]3CN3C[C@@]4(CCCc5cc(Cl)ccc54)COc4ccc(cc43)C(=O)NS2(=O)=O)C1 (stereo partly drawn) [Example 79, (1S,3′R,6′R,7′S,8′E,11R)-6-chloro-7′-hydroxy-12′-(cis-3-methoxycyclobutyl)-11′-methyl-3,4-dihydro-2H,15′H-spiro[naphthalene-1,22′-[20]oxa[13]thia[1,12,14]triazatetracyclo[14.7.2.0^3,6.0^19,24]pentacosa[8,16,18,24]tetraen]-15′-one 13′,13′-dioxide] | 5.44 | 8.38 |  |  | 
2 | C[C@@H]1[C@@H](C)C[C@H](CCO)/C=C/[C@@H]2CC[C@H]2CN2C[C@@]3(CCCc4cc(Cl)ccc43)COc3ccc(cc32)C(=O)NS1(=O)=O [Example 113, (1S,3′R,6′S,7′E,9′R,11′S,12′R)-6-chloro-9′-(2-hydroxyethyl)-11′,12′-dimethyl-3,4-dihydro-2H,15′H-spiro[naphthalene-1,22′-[20]oxa[13]thia[1,14]diazatetracyclo[14.7.2.0^3,6.0^19,24]pentacosa[7,16,18,24]tetraen]-15′-one 13′,13′-dioxide] | 5.94 | 9.00 |  |  | 
3 | COCCOCC[C@@H]1[C@@H](C)C/C=C/[C@H](O)[C@@H]2CC[C@H]2CN2C[C@@]3(CCCc4cc(Cl)ccc43)COc3ccc(cc32)C(=O)NS1(=O)=O (single isomer, unassigned) [Example 401] |  | 9.27 |  | 6.34 | 
4 | CC[C@@H]1C[C@@H](C)/C=C/[C@H](OCCOC)[C@@H]2CC[C@H]2CN2C[C@@]3(CCCc4cc(Cl)ccc43)COc3ccc(cc32)C(=O)NS1(=O)=O (single isomer, unassigned) [Example 1025] |  | 9.39 |  |  | 6.85
5 | C[C@@H]1CS(=O)(=O)NC(=O)c2ccc3c(c2)N(C[C@@H]2CC[C@H]2[C@@H]2C[C@H](CCO2)O1)C[C@@]1(CCCc2cc(Cl)ccc21)CO3 (single isomer, unassigned) [Example 921] |  |  | 8.68 | 5.04 | 
6 | O=C1NS(=O)(=O)N2CCC[C@H]2C/C=C/[C@H](O)[C@@H]2CC[C@H]2CN2C[C@@]3(CCCc4cc(Cl)ccc43)COc3ccc1cc32 (single isomer, unassigned) [Example 345] | 6.31 | 9.06 |  |  | 
7 | CO[C@H]1/C=C/C[C@H](C)[C@@H](CC(F)(F)F)S(=O)(=O)NC(=O)c2ccc3c(c2)N(C[C@@H]2CC[C@H]21)C[C@@]1(CCCc2cc(Cl)ccc21)CO3 (single isomer, unassigned) [Example 689] |  |  | 8.60 | 6.08 | 
8 | CO[C@H]1C/C=C/[C@H](O)[C@@H]2CC[C@H]2CN2C[C@@]3(CCCc4cc(Cl)ccc43)COc3ccc(cc32)C(=O)NS(=O)(=O)[C@@H]1CC1CC1 (single isomer, unassigned) [Example 574] |  |  | 9.41 | 6.73 | 
9 | COCCO[C@H]1/C=C/C[C@H](C)[C@H](c2ccccc2)S(=O)(=O)NC(=O)c2ccc3c(c2)N(C[C@@H]2CC[C@H]21)C[C@@]1(CCCc2cc(Cl)ccc21)CO3 (single isomer, unassigned) [Example 670] |  |  | 8.60 | 6.00 | 
10 | O=C1NS(=O)(=O)CCCC[C@@H](O)[C@@H]2CC[C@H]2CN2C[C@@]3(CCCc4cc(Cl)ccc43)COc3ccc1cc32 [Example 222, (1S,3′R,6′R,7′R)-6-chloro-7′-hydroxy-3,4-dihydro-2H,14′H-spiro[naphthalene-1,21′-[19]oxa[12]thia[1,13]diazatetracyclo[13.7.2.0^3,6.0^18,23]tetracosa [15,17,23]trien]-14′-one 12′,12′-dioxide] | 4.51 | 8.04 |  |  | 
11 | O=C1NS(=O)(=O)N2CCC[C@@H]2C/C=C/[C@H](O)[C@@H]2CC[C@H]2CN2C[C@@]3(CCCc4cc(Cl)ccc43)COc3ccc1cc32 [Example 347, (1S,3′R,6′R,7′S,8′E,11R)-6-chloro-7′-hydroxy-3,4-dihydro-2H,18′H-spiro[naphthalene-1,25′-[23]oxa[16]thia[1,15,17]triazapentacyclo[17.7.2.0^3,6.0^11,15.0^22,27]octacosa[8,19,21,27]tetraen]-18′-one 16′,16′-dioxide] |  | 8.14 |  | 5.26 | 

Now from value to molecule, other results behind:

Row | pIC50 [1, 3] | pIC50 [2, 4] | pIC50 [2, 5] | Structure (SMILES) | pIC50 ([1]; 16 h) | pIC50 ([1]; 16 h incubation)
12 | 6.08 | 9.67 |  | C[C@@H]1CC/C=C/[C@H](OCc2cn(C)nn2)[C@@H]2CC[C@H]2CN2C[C@@]3(CCCc4cc(Cl)ccc43)COc3ccc(cc32)C(=O)NS1(=O)=O [Example 417, (1S,3′R,6′R,7′S,8′E,12′R)-6-chloro-12′-methyl-7′-((1-methyl-1H-1,2,3-triazol-4-yl)methoxy)-3,4-dihydro-2H,15′H-spiro[naphthalene-1,22′-[20]oxa[13]thia[1,14]diazatetracyclo[14.7.2.0^3,6.0^19,24]pentacosa [8,16,18,24]tetraen]-15′-one 13′,13′-dioxide] |  | 
13 | 6.00 | 9.82 |  | C[C@@H]1[C@@H](C)C/C=C/[C@H](OCC(=O)N2CCC(O)CC2)[C@@H]2CC[C@H]2CN2C[C@@]3(CCCc4cc(Cl)ccc43)COc3ccc(cc32)C(=O)NS1(=O)=O [Example 312, (1S,3′R,6′R,7′S,8′E,11′S,12′R)-6-chloro-7′-(2-(4-hydroxy-1-piperidinyl)-2-oxoethoxy)-11′,12′-dimethyl-3,4-dihydro-2H,15′H-spiro[naphthalene-1,22′-[20]oxa[13]thia[1,14]diazatetracyclo[14.7.2.0^3,6.0^19,24]pentacosa [8,16,18,24]tetraen]-15′-one 13′,13′-dioxide] |  | 
14 | 6.21 | 9.31 |  | COCCN1CC/C=C/[C@H](O)[C@@H]2CC[C@H]2CN2C[C@@]3(CCCc4cc(Cl)ccc43)COc3ccc(cc32)C(=O)NS1(=O)=O [Example 31, (1S,3′R,6′R,7′S,8′E)-6-chloro-7′-hydroxy-12′-(2-methoxyethyl)-3,4-dihydro-2H,15′H-spiro[naphthalene-1,22′-[20]oxa[13]thia[1,12,14]triazatetracyclo[14.7.2.0^3,6.0^19,24]pentacosa[8,16,18,24]tetraen]-15′-one 13′,13′-dioxide] |  | 
15 | 5.60 |  | 8.31 | C[C@@H]1[C@@H](C)C/C=C/[C@H](OCCN2CCCC(F)(F)C2)[C@@H]2CC[C@H]2CN2C[C@@]3(CCCc4cc(Cl)ccc43)COc3ccc(cc32)C(=O)NS1(=O)=O [Example 515, (1S,3′R,6′R,7′S,8′E,11′S,12′R)-6-chloro-7′-(2-(3,3-difluoro-1-piperidinyl)ethoxy)-11′,12′-dimethyl-3,4-dihydro-2H,15′H-spiro[naphthalene-1,22′-[20]oxa[13]thia[1,14]diazatetracyclo[14.7.2.0^3,6.0^19,24]pentacosa [8,16,18,24]tetraen]-15′-one 13′,13′-dioxide] |  | 
16 | 6.77 |  | 9.61 | CC(=O)NCCO[C@H]1/C=C/C[C@H](C)[C@@H](C)S(=O)(=O)NC(=O)c2ccc3c(c2)N(C[C@@H]2CC[C@H]21)C[C@@]1(CCCc2cc(Cl)ccc21)CO3 [Example 732, N-(2-(((1S,3′R,6′R,7′S,8′E,11′S,12′R)-6-chloro-11,12′-dimethyl-13′, 13′-dioxido-15′-oxo-3,4-dihydro-2H-spiro[naphthalene-1,22′-[20]oxa[13]thia[1,14]diazatetracyclo[14.7.2.0^3,6.0^19,24]pentacosa[8,16,18,24]tetraen]-7′-yl)oxy)ethyl)acetamide] |  | 
17 | 6.88 | 9.48 |  | COCC1C(C)CC=CC(OC)C2CCC2CN2CC3(CCCc4cc(Cl)ccc43)COc3ccc(cc32)C(=O)NS1(=O)=O (single isomer, unassigned) [Example 460] |  | 
18 | 6.81 | 9.20 |  | C[C@@H]1[C@@H](C)C/C=C/[C@H](OCCN2CC(F)(F)C2)[C@@H]2CC[C@H]2CN2C[C@@]3(CCCc4cc(Cl)ccc43)COc3ccc(cc32)C(=O)NS1(=O)=O [Example 9, (1S,3′R,6′R,7′S,8′E,11′S,12′R)-6-chloro-7′-(2-(3,3-difluoro-1-azetidinyl)ethoxy)-11′,12′-dimethyl-3,4-dihydro-2H,15′H-spiro[naphthalene-1,22′-[20]oxa[13]thia[1,14]diazatetracyclo[14.7.2.0^3,6.0^19,24]pentacosa[8,16,18,24]tetraen]-15′-one 13′,13′-dioxide] |  | 
19 | 6.78 |  | 9.54 | C[C@@H]1[C@@H](C)C/C=C/[C@H](OCCN2C[C@H]3C[C@@H]2CO3)[C@@H]2CC[C@H]2CN2C[C@@]3(CCCc4cc(Cl)ccc43)COc3ccc(cc32)C(=O)NS1(=O)=O [Example 521, (1S,3′R,6′R,7′S,8′E,11′S,12′R)-6-chloro-11′,12′-dimethyl-7′-(2-((1R,4R)-2-oxa-5-azabicyclo[2.2.1]hept-5-yl)ethoxy)-3,4-dihydro-2H,15′H-spiro[naphthalene-1,22′-[20]oxa[13]thia[1,14]diazatetracyclo[14.7.2.0^3,6.0^19,24]pentacosa [8,16,18,24]tetraen]-15′-one 13′,13′-dioxide 2,2,2-trifluoroacetic Acid] |  | 
20 | 5.89 | 9.20 |  | CO[C@H]1/C=C/CCN(C)S(=O)(=O)NC(=O)c2ccc3c(c2)N(C[C@@H]2CC[C@H]21)C[C@@]1(CCCc2cc(Cl)ccc21)CO3 (single isomer, unassigned) [Example 47] |  | 
21 | 6.26 | 9.21 |  | COC(=O)CN1CC/C=C/[C@H](O)[C@@H]2CC[C@H]2CN2C[C@@]3(CCCc4cc(Cl)ccc43)COc3ccc(cc32)C(=O)NS1(=O)=O [Example 32, methyl((1S,3′R,6′R,7′S,8′E)-6-chloro-7′-hydroxy-13′,13′-dioxido-15′-oxo-3,4-dihydro-2H,12′H-spiro[naphthalene-1,22′-[20]oxa[13]thia[1,12,14]triazatetracyclo[14.7.2.0^3,6.0^19,24]pentacosa[8,16,18,24]tetraen]-12′-yl)acetate] |  | 
